Reference: patent US8440841B2, “5-pyrrolidinylsulfonyl isatin derivatives” (Universitätsklinikum Münster, priority 2005, dated 2013)

Key:
[1] = molecular target: T1, recombinant human caspase 3 (Homo sapiens, UniProt P42574); experiment: Caspase inhibition assay, standard fluorometric assay with Ac-DEVD-AMC; format: biochemical; conditions: Ki(app) = IC50/(1 + [S]/KM), [S] = 10 μM Ac-DEVD-AMC, 37° C., pH 7.5
T1 construct: Recombinant full-length human caspase-3 was purified as described previously [21b]; made in house
T1 sequence (P42574 29-175 limits assumed): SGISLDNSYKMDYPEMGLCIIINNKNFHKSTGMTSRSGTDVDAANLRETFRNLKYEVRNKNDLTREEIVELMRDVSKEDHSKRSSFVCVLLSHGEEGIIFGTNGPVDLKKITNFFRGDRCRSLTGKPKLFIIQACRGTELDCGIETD
T1 sequence (P42574 176-277 limits assumed): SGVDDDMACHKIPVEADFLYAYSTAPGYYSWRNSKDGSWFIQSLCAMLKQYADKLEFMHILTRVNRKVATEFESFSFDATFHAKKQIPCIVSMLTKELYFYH
Method: The inhibition of recombinant human caspase 3 by twentythree isatin sulfonamides (twenty
Recombinant full-length human caspase-3 was purified as described previously [21b]. […] Enzyme assays were performed in a 200 μl volume at 37° C. in reaction buffer containing 0.1% CHAPS, 50 mM KCl, 5 mM β-mercaptoethanol, 25 mM HEPES (pH 7.5) and nonradioactive isatins in DMSO each in single doses (end concentrations 500 μM, 50 μM, 5 μM, 500 nM, 50 nM, 5 nM, 500 pM, 50 pM or 5 pM). […] After 10 min incubation time Ac-DEVD-AMC (end concentration 10 μM) was added and reacted for further 10 min. […] The IC50-values were determined by non-linear regression analysis using the XMGRACE program (Linux software) and converted into the corresponding Ki-values by the equation Ki=IC50/(1+[S]/KM) assuming competitive inhibition by the isatin derivatives, where [S] is the concentration and KM is the Michaelis constant of substrate Ac-DEVD-AMC.

active caspase-3 = molecular target: T2, active caspase-3 (Homo sapiens, UniProt P42574); experiment: Cellular caspase assay: growth factor withdrawal-induced apoptosis in HUVEC, Western blot; format: cell-based; conditions: 8 hours, at 10 μM (FIGS. 1 and 2)
T2 construct: endogenous in cells; host or cells: HUVEC
T2 sequence (P42574 29-175 limits assumed): T1 sequence (P42574 29-175 limits assumed)
T2 sequence (P42574 176-277 limits assumed): T1 sequence (P42574 176-277 limits assumed)
Method: In the context of cellular apoptosis assays concentration- and time-dependent kinetics of mentioned CbRs and CbR-transporter conjugates are performed to evaluate the pharmacological inhibition of apoptosis in viable apoptotic cells (e.g. growth factor withdrawal-induced, drug-induced, or ionizing radiation-induced apoptosis in endothelial cells).
HUVEC (Human umbilical vein endothelial cells) were cultivated on gelatine (2%)-coated dishes in RPMI-1640 containing 15% bovine calf serum, 1% Pen/Strep/Amph, 1% Heparin and 0.05 mg/ml bovine pituitary extract (BPE) at 37° C. in 5% CO2. Apoptosis was induced by growth factor withdrawal as previously described. For caspase inhibition experiments, cells were pre-incubated for 30 min with the compounds in the indicated concentrations. The medium was then removed and replaced with RPMI-1640 without serum or BPE, and the cells were incubated in the presence or absence of the various inhibitor concentrations for 8 hours. All cells were then harvested in lysis buffer, incubated for 10 min on ice, and cell debris was removed by centrifugation at 14000 rpm at 4° C. for 10 min. Protein concentration was determined by the Pierce protein assay, and 30 μg cell lysate were loaded on 15% SDS-Page gels and transferred to Immobilon PVDF membranes. Western blots were performed with antibodies to active caspase-3 (Cell Signaling) and developed using ECL (Amersham).
A quantitative (pharmacological) inhibition of before mentioned target caspases with the non-radioactive PET- or SPECT-compatible CbRs of presented invention needs macroscopic amounts of the inhibitor, i.e. concentrations of caspase inhibitor that are definitely more than necessarily needed for molecular imaging purposes.

[2] = Small-animal PET biodistribution after i.v. injection; format: in vivo, WT Mouse (Nu/Nu); conditions: mouse, 180 min p.i.
Method: PET was performed using a high-resolution dedicated small-animal PET system (32-module quadHIDAC; Oxford Positron Systems) which uses multiwire chamber detectors with submillimeter-resolution potency. For each data acquisition, up to two mice were placed on a heating pad to maintain a normal body temperature. The animals were anesthetised by inhalation of isoflurane (1.5%) and intravenously injected with approximately 7 MBq of each radiotracer in 100 μL isotonic as well as isohydric solution.
A small-animal PET scan was performed with the quadHIDAC device to trace the in vivo biodistribution behavior of the PET-compatible CbR (S)-1-(4-(2[<18>F]fluoroethoxy)benzyl)-5-[1-(2-methoxymethylpyrrolidinyl)-sulfonyl]isatin [<18>F]VI. Immediately after i.v. injection of [<18>F]VI (A=7MBq, pH=8, A5=48 GBq/[mu]mol, V=100 [mu]1 in sodium bicarbonate buffered saline solution) data acquisition was started. List-mode data were acquired for 180 min and subsequently reconstructed into an image volume of 90×90×120 mm<3>, voxel size 0.4×0.4×0.4 mm<3>, using an iterative reconstruction algorithm (OPL-EM). […] Mentioned hot spot remains even 6 h p.i. (data not shown).

SMILES | Ki [1] [nM] | melting point | also measured
C[Si](C)(C)c1ccc(CN2C(=O)C(=O)c3cc(S(=O)(=O)N4CCC[C@H]4COc4ccccc4)ccc32)cc1 [1b, (S)-5-[1-(2-phenoxymethylpyrrolidinyl)sulfonyl]-1-(4-trimethylsilylbenzyl)-isatin] | 0.7 | 128 to 130 °C (dec.) | 
O=C1C(=O)N(Cc2ccc(Br)cc2)c2ccc(S(=O)(=O)N3CCC[C@H]3COc3ccccc3)cc21 [1c, (S)-(+)-1-(4-bromobenzyl)-5-[1-(2-phenoxymethylpyrrolidinyl)sulfonyl]isatin] | 3 |  | 
COC[C@@H]1CCCN1S(=O)(=O)c1ccc2c(c1)C(=O)C(=O)N2C [II, (S)-5-[1-(2-methoxymethylpyrrolidinyl)sulfonyl]-1-methyl-isatin] | 2 | 143 to 144 °C | inhibition of caspase progression (Western blot, active caspase-3) (active caspase-3): recognizable
O=C1C(=O)N(Cc2ccc(O)cc2)c2ccc(S(=O)(=O)N3CCC[C@H]3COc3ccccc3)cc21 [IIIa, (S)-1-(p-hydroxybenzyl)-5-[1-(2-phenoxymethylpyrrolidinyl)sulfonyl]isatin] | 3 |  | 
O=C1C(=O)N(Cc2ccc(OCc3ccccc3)cc2)c2ccc(S(=O)(=O)N3CCC[C@H]3COc3ccccc3)cc21 [IIIaa, (S)-(+)-1-(4-benzyloxybenzyl)-5-[1-(2-phenoxymethylpyrrolidinyl)-sulfonyl]isatin] | 6.9 | 69 to 70 °C | 
CC(C)(C)[Si](C)(C)Oc1ccc(CN2C(=O)C(=O)c3cc(S(=O)(=O)N4CCC[C@H]4COc4ccccc4)ccc32)cc1 [IIIab, (S)-1-(p-tert-butyldimethylsilyloxybenzyl)-5-[1-(2-phenoxymethylpyrrolidinyl)sulfonyl]-isatin] | 20 |  | 
COC[C@@H]1CCCN1S(=O)(=O)c1ccc2c(c1)C(=O)C(=O)N2 [IIa, (S)-5-(1-[2-(methoxymethyl)pyrrolidinyl]-sulfonyl)isatin, reference compound] | 77 |  | 
COC[C@@H]1CCCN1S(=O)(=O)c1ccc2c(c1)C(=O)C(=O)N2Cc1ccc(OC)cc1 [IV, (S)-1-(4-methoxybenzyl)-5-[1-(2-methoxymethylpyrrolidinyl)sulfonyl]isatin] | 9 |  | inhibition of caspase progression (Western blot, active caspase-3) (active caspase-3): recognizable
COC[C@@H]1CCCN1S(=O)(=O)c1ccc2c(c1)C(=O)C(=O)N2Cc1ccc(O)cc1 [IVa, (S)-1-(p-hydroxybenzyl)-5-[1-(2-methoxymethylpyrrolidinyl)sulfonyl]isatin] | 45 |  | 
COC[C@@H]1CCCN1S(=O)(=O)c1ccc2c(c1)C(=O)C(=O)N2Cc1ccc(OCc2ccccc2)cc1 [IVaa, (S)-(+)-1-(4-benzyloxybenzyl)-5-[1-(2-methoxymethylpyrrolidinyl)-sulfonyl]isatin] | 5 | 73 to 74 °C | 
COC[C@@H]1CCCN1S(=O)(=O)c1ccc2c(c1)C(=O)C(=O)N2Cc1ccc(O[Si](C)(C)C(C)(C)C)cc1 [IVab, (S)-1-(p-tert-butyldimethylsilyloxybenzyl)-5-[1-(2-methoxymethylpyrrolidinyl)sulfonyl]-isatin] | 4 |  | 
O=C1C(=O)N(Cc2ccc(OCCF)cc2)c2ccc(S(=O)(=O)N3CCC[C@H]3COc3ccccc3)cc21 [V, (S)-1-(4-(2-fluoroethoxy)benzyl)-5-[1-(2-phenoxymethylpyrrolidinyl)sulfonyl]isatin] | 0.4 |  | 
COC[C@@H]1CCCN1S(=O)(=O)c1ccc2c(c1)C(=O)C(=O)N2Cc1ccc(OCCF)cc1 [VI, (S)-1-(4-(2-fluoroethoxy)benzyl)-5-[1-(2-methoxymethylpyrrolidinyl)sulfonyl]isatin] | 36 |  | inhibition of caspase progression (Western blot, active caspase-3) (active caspase-3): recognizable
COC[C@@H]1CCCN1S(=O)(=O)c1ccc2c(c1)C(=O)C(=O)N2Cc1ccc(OCCOS(=O)(=O)c2ccc(C)cc2)cc1 [VIa, (S)-1-(4-(2-(p-methylphenylsulfonyloxy)ethoxy)benzyl)-5-[1-(2-methoxymethylpyrrolidinyl)sulfonyl]isatin] | 2 | 61 to 62 °C | 
COC[C@@H]1CCCN1S(=O)(=O)c1ccc2c(c1)C(=O)C(=O)N2Cc1ccc(OCCBr)cc1 [VIaa, (S)-1-(4-(2-bromoethoxy)benzyl)-5-[1-(2-methoxymethylpyrrolidinyl)-sulfonyl]isatin] | 13 | 61 to 62 °C | 
Cc1ccc(S(=O)(=O)OCCOc2ccc(CN3C(=O)C(=O)c4cc(S(=O)(=O)N5CCC[C@H]5COc5ccccc5)ccc43)cc2)cc1 [Va, (S)-1-(4-(2-(p-methylphenylsulfonyloxy)ethoxy)benzyl)-5-[1-(2-phenoxymethylpyrrolidinyl)sulfonyl]isatin] | 17 |  | 
O=C1C(=O)N(Cc2ccc(OCCBr)cc2)c2ccc(S(=O)(=O)N3CCC[C@H]3COc3ccccc3)cc21 [Vaa, (S)-1-(4-(2-bromoethoxy)benzyl)-5-[1-(2-phenoxymethylpyrrolidinyl)sulfonyl]isatin] | 25 | 162 to 163 °C | 
COC[C@@H]1CCCN1S(=O)(=O)c1ccc2c(c1)C(=O)C(=O)N2Cc1ccc(OCC[18F])cc1 [[^18F]VI, (S)-1-(4-(2-[^18F]Fluoroethoxy)benzyl)-5-[1-(2-methoxymethylpyrrolidinyl)-sulfonyl]isatin] |  |  | clearance of radioactivity from peripheral organs (PET) ([2]; 7 MBq, all peripheral organs (FIG. 3)): cleared; remaining radioactivity (PET) ([2]; hot spot (putatively gall bladder) remains even 6 h p.i.): only remains in the bowels and in a hot spot nearby the liver
O=C1C(=O)N(Cc2ccc(I)cc2)c2ccc(S(=O)(=O)N3CCC[C@H]3COc3ccccc3)cc21 [compound 1, (S)-1-(4-iodobenzyl)-5-[1-(2-phenoxymethylpyrrolidinyl)sulfonyl]isatin] |  | 88 to 90 °C | 
COC[C@@H]1CCCN1S(=O)(=O)c1ccc2c(c1)C(=O)C(=O)N2Cc1ccc(I)cc1 [compound 2, (S)-1-(4-iodobenzyl)-5-[1-(2-methoxymethylpyrrolidinyl)sulfonyl]isatin] | 11 | 129 to 130 °C | inhibition of caspase progression (Western blot, active caspase-3) (active caspase-3): recognizable
